Measured values: US10144732B2 (BIOGEN MA INC., priority 2014, dated 2018)
Where “and” joins values, the source holds several entries; their conditions need not be identical. Identical values can stand only once. Counter-ions that a name gives are not always drawn.

Biological target: T1, Human ATX protein (Homo sapiens, UniProt Q13822)
T1 construct: made in house
Test: ATX biochemical assay (FRET, FS-3 substrate)
Settings: FRET assay, FS-3 2 μM, ATX 1.0 μg/mL, 30 minutes preincubation, 2 hours reaction at room temperature; read-out: IC50
How it was run: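 FRET read-out: cleavage of FS-3 (2 μM final) unquenches fluorescein, measured at 485/538 nm after 2 h at room temperature. Before substrate addition, in-house-expressed human autotaxin (1.0 μg/mL) sat with compound for 30 min in pH 7.4 Tris/NaCl/KCl/CaCl2/MgCl2 buffer containing fatty acid free-BSA at 1 mg/mL.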

CCCC1CC(CC(=O)N2CCc3c(C(F)(F)F)nn(Cc4ccc(F)cc4)c3C2)CCN1 (centres unmarked) [Example 9-12, 1-(1-(4-Fluorobenzyl)-3-(trifluoromethyl)-4,5-dihydro-1H-pyrazolo[3,4-c]pyridin-6(7H)-yl)-2-(2-propylpiperidin-4-yl)ethanone acid TFA salt]
IC50: ≤ 100 nM

O=C(O)CCNCC(=O)N1CCc2c(C(F)(F)F)nn(Cc3ccc(F)cc3)c2C1 [Example 13-16, 3-(2-(1-(4-Fluorobenzyl)-3-(trifluoromethyl)-4,5-dihydro-1H-pyrazolo[3,4-c]pyridin-6(7H)-yl)-2-oxoethylamino)propanoic acid TFA salt]
IC50: ≤ 100 nM

CCOC(=O)C1CCCN(CC(=O)N2CCc3c(C(F)(F)F)nn(Cc4ccc(Cl)cc4F)c3C2)C1 (centres unmarked) [Example 12-3, Ethyl 1-(2-(1-(4-chloro-2-fluorobenzyl)-3-(trifluoromethyl)-4,5-dihydro-1H-pyrazolo[3,4-c]pyridin-6(7H)-yl)-2-oxoethyl)piperidine-3-carboxylate]
IC50: ≤ 100 nM

CCOC(=O)[C@H]1CC[C@H](CC(=O)N2CCc3c(C#N)nn(Cc4ccc(F)cc4)c3C2)CC1 [Example 1-43, trans-Ethyl 4-(2-(3-cyano-1-(4-fluorobenzyl)-4,5-dihydro-1H-pyrazolo[3,4-c]pyridin-6(7H)-yl)-2-oxoethyl)cyclohexanecarboxylate]
IC50: ≤ 100 nM

N#CC1CCN(CC(=O)N2CCc3c(C(F)(F)F)nn(Cc4ccc(F)cc4)c3C2)C1 (centres unmarked) [Example 12-11, 1-(2-(1-(4-Fluorobenzyl)-3-(trifluoromethyl)-4,5-dihydro-1H-pyrazolo[3,4-c]pyridin-6(7H)-yl)-2-oxoethyl)pyrrolidine-3-carbonitrile TFA salt]
IC50: ≤ 100 nM

O=C(O)[C@H]1CC[C@@H](C(=O)N2CCc3c(C(F)(F)F)nn(Cc4ccc(F)cc4)c3C2)CC1 [Example 7-18, cis-4-(1-(4-fluorobenzyl)-3-(trifluoromethyl)-4,5,6,7-tetrahydro-1H-pyrazolo[3,4-c]pyridine-6-carbonyl)cyclohexanecarboxylic acid]
IC50: ≤ 100 nM

O=C(Cc1ccncc1)N1CCc2c(C(F)(F)F)nn(Cc3ccc(Cl)cc3F)c2C1 [Example 1-7, 1-(1-(4-Chloro-2-fluorobenzyl)-3-(trifluoromethyl)-4,5-dihydro-1H-pyrazolo[3,4-c]pyridin-6(7H)-yl)-2-(pyridin-4-yl)ethanone]
IC50: > 10000 nM

CCOC(=O)C1CCC(CC(=O)N2CCc3c(C(F)(F)F)nn(CC4CCCCC4)c3C2)CC1 (centres unmarked) [Example 1-16, Ethyl 4-(2-(1-(cyclohexylmethyl)-3-(trifluoromethyl)-4,5-dihydro-1H-pyrazolo[3,4-c]pyridin-6(7H)-yl)-2-oxoethyl)cyclohexanecarboxylate]
IC50: ≤ 100 nM

CC1(C(=O)O)CCC(CC(=O)N2CCc3c(C(F)(F)F)nn(Cc4ccc(F)cc4)c3C2)CC1 (centres unmarked) [Example 6-11, 4-(2-(1-(4-Fluorobenzyl)-3-(trifluoromethyl)-4,5-dihydro-1H-pyrazolo[3,4-c]pyridin-6(7H)-yl)-2-oxoethyl)-1-methylcyclohexanecarboxylic acid]
IC50: ≤ 100 nM

O=C(CC1CNCCO1)N1CCc2c(C(F)(F)F)nn(Cc3ccc(F)cc3)c2C1 (centres unmarked) [Example 9-16, 1-(1-(4-Fluorobenzyl)-3-(trifluoromethyl)-4,5-dihydro-1H-pyrazolo[3,4-c]pyridin-6(7H)-yl)-2-(morpholin-2-yl)ethanone TFA salt]
IC50: ≤ 100 nM

O=C(C[C@H]1CC[C@H](C(=O)O)CC1)N1CCc2c(C(F)(F)F)nn(Cc3cncnc3)c2C1 [Example 5-29, trans-4-(2-Oxo-2-(1-(pyrimidin-5-ylmethyl)-3-(trifluoromethyl)-4,5-dihydro-1H-pyrazolo[3,4-c]pyridin-6(7H)-yl)ethyl)cyclohexanecarboxylic acid]
IC50: > 500 nM and ≤ 10000 nM
